# Patent US12083227B2, “Solid pharmaceutical formulations for treating endometriosis, uterine fibroids, polycystic ovary syndrome or adenomyosis” (priority 2017, dated 2024)
# Experiments:
# [1] = acid dissociation constants by potentiometric titration; format: physicochemical
# Procedure: The acid dissociation constants were determined by potentiometric titration method. […] The first is XH2+, where the carboxylic acid is not ionized but the secondary amine is; the molecule has an overall +1 charge, and the main species at pHs below 4.0. The second is XH, where both the carboxylic acid and the tertiary amine are ionized. […] The third is X−, where the carboxylic acid is ionized but the tertiary amine is not.
# [2] = test system: ovulation and endometrial thickness in healthy women; experiment: 3-menstrual cycle study in healthy women; format: in vivo, human; settings: transvaginal ultrasound, 150 mg QD and 200 mg BID
# [3] = test system: endometriosis with associated pain in premenopausal women; experiment: Study EM-I (placebo-controlled) and its extension; format: in vivo, human; settings: Month 6 and Month 12
# Text: Each placebo-controlled study assessed the reduction in endometriosis-associated pain over 6 months of treatment. More than 75 percent of women who completed Study EM-I and EM-II enrolled in the extension studies for an additional 6 month treatment period. Subjects were followed for up to 12 months post-treatment. The co-primary efficacy endpoints were the proportion of responders for dysmenorrhea and pelvic pain not related to menses (also known as non-menstrual pelvic pain [NMPP]) at Month 3 compared to placebo. The primary analysis independently evaluated these endpoints using a daily diary that asked patients to assess their pain and its impact on their daily activities, over the previous 24 hours. […] Women were defined as responders if they experienced clinically meaningful reduction in dysmenorrhea and/or NMPP with no increased analgesic use for endometriosis associated pain. Dyspareunia was evaluated as a secondary endpoint using the Daily Endometriosis Pain Impact Scale. Endometrial biopsies were performed in subjects in Study EM-I and its extension at Month 6 and Month 12.
# [4] = pharmacokinetic properties of elagolix in healthy subjects; format: in vivo, human; settings: minor pathways include CYP2D6, CYP2C8 and UGTs
# [5] = pharmacokinetics in specific populations (renal and hepatic impairment); format: in vivo, human
# Text: The mean exposures are similar for women with moderate to severe or end stage renal disease (including women on dialysis) compared to women with normal renal function.
# Elagolix exposures (Cmax and AUC) are similar between women with normal hepatic function and women with mild hepatic impairment. Elagolix exposures in women with moderate and severe hepatic impairment are approximately 3-fold and 7-fold, respectively, of exposures from women with normal hepatic function.
# [6] = drug interaction studies: elagolix in the presence of co-administered drug; format: in vivo, human; settings: for AUC Ratio (co-administration vs. elagolix alone) / Cmax Ratio (co-administration vs. elagolix alone): elagolix 150 mg single dose
# Procedure: Drug interaction studies were performed with elagolix and other drugs that are likely to be co-administered and with drugs commonly used as probes for pharmacokinetic interactions.
# [7] = biological target: T1, organic anion transporting polypeptide (OATP)1B1 (Homo sapiens, UniProt Q9Y6L6); experiment: substrate status: OATP1B1
# T1 sequence (Q9Y6L6 1-691): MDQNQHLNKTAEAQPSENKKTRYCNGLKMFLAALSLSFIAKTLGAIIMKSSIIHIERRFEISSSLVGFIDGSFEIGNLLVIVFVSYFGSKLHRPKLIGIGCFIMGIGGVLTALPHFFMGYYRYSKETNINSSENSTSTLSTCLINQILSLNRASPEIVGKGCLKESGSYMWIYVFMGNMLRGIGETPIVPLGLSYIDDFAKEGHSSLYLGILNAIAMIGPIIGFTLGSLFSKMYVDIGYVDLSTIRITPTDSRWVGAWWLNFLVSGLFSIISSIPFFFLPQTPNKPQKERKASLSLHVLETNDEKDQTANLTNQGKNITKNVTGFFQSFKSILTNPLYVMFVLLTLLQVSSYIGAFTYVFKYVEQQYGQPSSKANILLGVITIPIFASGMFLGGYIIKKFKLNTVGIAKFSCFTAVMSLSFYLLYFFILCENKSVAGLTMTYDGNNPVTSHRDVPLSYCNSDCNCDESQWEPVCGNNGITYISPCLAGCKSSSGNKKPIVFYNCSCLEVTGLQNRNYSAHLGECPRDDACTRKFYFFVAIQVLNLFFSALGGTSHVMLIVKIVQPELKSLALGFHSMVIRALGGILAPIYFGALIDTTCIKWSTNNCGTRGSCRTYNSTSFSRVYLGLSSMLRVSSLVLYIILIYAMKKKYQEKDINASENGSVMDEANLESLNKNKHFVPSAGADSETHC
# Text: Elagolix is a substrate of CYP3A, P-gp, and organic anion transporting polypeptide (OATP)1B1. Clinically meaningful interactions are not expected when elagolix is co-administered with drugs that inhibit CYP3A or P-gp.
# [8] = test system: fertility and reproductive organs of rats; experiment: fertility study and repeat-dose study in rats; format: in vivo, rat
# Text: (§1) Based on pharmacologic actions of elagolix in humans a reversible effect on fertility may be expected in women.
# [9] = test system: reproductive organs of monkeys; experiment: repeat-dose study in monkeys; format: in vivo, monkey; settings: repeat-dose, 75, 150, 300 and 600 mg/kg/day, all doses
# Text: as §1
# [10] = lactation study in rats (elagolix in diet through gestation and lactation); format: in vivo, rat; settings: dams 400 mg/kg daily in diet
# Procedure: Pregnant rats were given diet containing elagolix throughout the gestation and lactation periods to achieve a daily elagolix dose of 400 mg/kg. During nursing the dams and litters were divided into restricted feeding and non-restricted groups to determine whether elagolix was secreted in the mother's milk. […] In pups of the non-restricted feeding group, elagolix plasma concentrations were measurable and approximately 1% of the mother's plasma concentrations.
# [11] = Ketoconazole 400 mg once daily, N 11
# [12] = Rifampin 600 mg single dose, N 12
smiles,measurement,setting,value
"COc1cccc(-c2c(C)n(Cc3c(F)cccc3C(F)(F)F)c(=O)n(C[C@H](NCCCC(=O)O)c3ccccc3)c2=O)c1F [elagolix, 4-((R)-2-[5-(2-fluoro-3-methoxy-phenyl)-3-(2-fluoro-6-trifluoromethyl-benzyl)-4-methyl-2,6-dioxo-3,6-dihydro-2H-pyrimidin-1-yl]-1-phenyl-ethylamino)-butyric acid]",pKa (B),[1]; amine,7.9
same,pKa (A),[1]; carboxylic acid,4.0
same,mean endometrial thickness compared to the pretreatment values,[2],dose dependent decrease
same,endometrial biopsy findings post-baseline (hyperplasia or cancer),[3],no abnormal biopsy findings
same,Metabolism,[4],CYP3A (major) Minor
same,exposures in moderate hepatic impairment relative to normal hepatic function,[5]; moderate hepatic impairment,approximately 3 fold
same,exposures (Cmax and AUC) in renal impairment,[5]; moderate to severe or end stage renal disease vs normal renal function,not altered
same,exposures in severe hepatic impairment relative to normal hepatic function,[5],approximately 7 fold
same,exposures in severe hepatic impairment relative to normal hepatic function,[5]; listed as Elagolix,~7 fold
same,exposures (Cmax and AUC) in mild hepatic impairment,[5]; vs women with normal hepatic function,similar
same,AUC Ratio (co-administration vs. elagolix alone),[6]; [11],2.20
same,Cmax Ratio (co-administration vs. elagolix alone),[6]; [11],1.77
same,AUC Ratio (co-administration vs. elagolix alone),[6]; Rifampin 600 mg once daily,1.65
same,Cmax Ratio (co-administration vs. elagolix alone),[6]; Rifampin 600 mg once daily,2.00
same,AUC Ratio (co-administration vs. elagolix alone),[6]; [12],5.58
same,Cmax Ratio (co-administration vs. elagolix alone),[6]; [12],4.37
same,direction of the change in AUC of elagolix,[6]; co-administered with rifampin,↑ elagolix
same,substrate of OATP1B1,[7],substrate
same,effect on fertility,"[8]; fertility study, 50, 150, 300 mg/kg/day",no effect
same,ovary findings,"[8]; repeat-dose study, 600, 800 mg/kg/day",involution and a decrease in corpora lutea in ovaries
same,"reproductive organ findings (cervix, uterus and vagina)",[9],reversible atrophy of reproductive organs
same,plasma concentrations in pups relative to the mother's plasma concentrations,[10]; rat pups of non-restricted feeding group,approximately 1%
same,plasma concentrations in pups,"[10]; rat pups of restricted feeding litters, post natal day 10 and 20",not measurable
